Measured values taken from ChEMBL document CHEMBL5634124, “Discovery and optimization of indirubin derivatives as novel ferroptosis inducers for the treatment of colon cancer” (Eur J Med Chem, 2023).
Values after ≈ are worked out from the molar mass of the structure shown. Active and inactive are the calls of the source. No cut-off for these calls is given here.

Tests used:
HCT-116 [1] = assay: Cytotoxicity against human HCT-116 cells assessed as inhibition of cell viability incubated for 48 hrs by CCK8 assay; format: functional, cell-based; details: HCT-116, 48 h
HCT-116 [2] = assay: Effect on NCOA4 expression in human HCT-116 cells; format: functional, cell-based
HCT-116 [3] = assay: Cytotoxicity against human HCT-116 cells assessed as inhibition of cell viability incubated for 48 hrs in presence of NAC by CCK8 assay; format: functional, cell-based
[4] = Metabolic stability in human liver microsomes assessed as intrinsic clearance at 0.5 uM incubated for 45 mins by LC/MS analysis; format: ADME, Microsome; details: read-out: CLH
HCT-116 [5] = assay: Antitumor activity against human HCT-116 cells xenografted in BALB/c nude mouse model assessed as morphological change in tumor at 25 to 50 mg/kg, ip administered 4 times a week for 3 weeks by H and E staining based analysis; format: functional, organism-based; details: dose 25-50 mg/kg
[6] = molecular target: T1, Phospholipid hydroperoxide glutathione peroxidase GPX4 (Homo sapiens) (UniProt P36969); assay: Inhibition of GPX4 in human HCT-116 cells incubated for 24 hrs by Western blot analysis; format: cell-based; details: dose <= 1.0 µM
T1 sequence (whole entry): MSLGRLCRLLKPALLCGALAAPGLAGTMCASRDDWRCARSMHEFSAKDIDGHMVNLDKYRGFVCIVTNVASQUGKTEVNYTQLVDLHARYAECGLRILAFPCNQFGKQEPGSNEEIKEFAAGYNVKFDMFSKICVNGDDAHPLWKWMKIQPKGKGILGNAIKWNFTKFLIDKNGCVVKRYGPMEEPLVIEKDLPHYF

[7] = Metabolic stability in human liver microsomes assessed as half life at 0.5 uM incubated for 45 mins by LC/MS analysis; format: ADME, Microsome
[8] = Toxicity in BALB/c nude mouse model xenografted with human HCT-116 cells assessed as morphological change in lungs at 25 to 50 mg/kg, ip administered 4 times a week for 3 weeks by H and E staining based analysis; format: organism-based; details: in vivo, 504 h, dose 25-50 mg/kg
[9] = Metabolic stability in human liver microsomes assessed as hepatic clearance rate at 0.5 uM incubated for 45 mins by LC/MS analysis; format: ADME, Microsome
HCT-116 [10] = assay: Cytotoxicity against human HCT-116 cells assessed as inhibition of cell viability incubated for 48 hrs in presence of Nec by CCK8 assay; format: functional, cell-based
[11] = molecular target: T1, Phospholipid hydroperoxide glutathione peroxidase GPX4 (Homo sapiens); assay: Inhibition of GPX4 in human HCT-116 cells assessed as increase in protein ubiquitination upto 1 uM incubated for 24 hrs by co-immunoprecipitation method; format: cell-based
[12] = Kinetic solubility of compound at pH 7.4; format: physicochemical; details: buffer, read-out: Kinetic_solubility
HCT-116 [13] = assay: Induction of ferroptosis in human HCT-116 cells assessed as increase in intracellular lipid ROS level incubated for 24 hrs by flow cytometry; format: functional, cell-based; details: dose <= 1.0 µM
[14] = Toxicity in BALB/c nude mouse model xenografted with human HCT-116 cells assessed as morphological change in liver at 25 to 50 mg/kg, ip administered 4 times a week for 3 weeks by H and E staining based analysis; format: organism-based; details: in vivo, 504 h, dose 25-50 mg/kg
[15] = Toxicity in BALB/c nude mouse model xenografted with human HCT-116 cells assessed as morphological change in heart at 25 to 50 mg/kg, ip administered 4 times a week for 3 weeks by H and E staining based analysis; format: organism-based; details: in vivo, 504 h, dose 25-50 mg/kg
HCT-116 [16] = assay: Effect on FSP1 expression in human HCT-116 cells; format: functional, cell-based
[17] = molecular target: T2, Phospholipid hydroperoxide glutathione peroxidase GPX4 (Homo sapiens, UniProt P36969); assay: Inhibition of GPX4 (unknown origin) incubated for 1 hr by absorbance based assay
T2 sequence (P36969 whole entry): T1 sequence (whole entry)

[18] = Toxicity in BALB/c nude mouse model xenografted with human HCT-116 cells assessed as morphological change in spleen at 25 to 50 mg/kg, ip administered 4 times a week for 3 weeks by H and E staining based analysis; format: organism-based; details: in vivo, 504 h, dose 25-50 mg/kg
HCT-116 [19] = assay: Effect on SLC7A11 expression in human HCT-116 cells; format: functional, cell-based
HCT-116 [20] = assay: Inhibition of colony formation in human HCT-116 cells treated for 48 hrs followed by replacement of growth medium without compound every other day measured after 2 weeks by crystal violet staining based assay; format: functional, cell-based; details: dose <= 1.0 µM
HCT-116 [21] = assay: Effect on ACSL4 expression in human HCT-116 cells; format: functional, cell-based
HCT-116 [22] = assay: Cytotoxicity against human HCT-116 cells assessed as inhibition of cell viability incubated for 48 hrs in presence of 3-MA by CCK8 assay; format: functional, cell-based
HCT-116 [23] = assay: Induction of ferroptosis in human HCT-116 cells assessed as increase in intracellular MDA level incubated for 24 hrs; format: functional, cell-based; details: dose <= 1.0 µM
HCT-116 [24] = assay: Cytotoxicity against human HCT-116 cells assessed as inhibition of cell viability incubated for 48 hrs in presence of DFO by CCK8 assay; format: functional, cell-based
HCT-116 [25] = assay: Induction of ferroptosis in human HCT-116 cells assessed as increase in Fe2+ level upto 1 uM incubated for 24 hrs by flow cytometry; format: functional, cell-based
HCT-116 [26] = assay: In vivo inhibition of GPX4 in human HCT-116 cells xenografted in BALB/c nude mouse model at 25 to 50 mg/kg, ip administered 4 times a week for 3 weeks by IHC analysis; format: functional, organism-based; details: dose 25-50 mg/kg
[27] = Toxicity in BALB/c nude mouse model xenografted with human HCT-116 cells assessed as morphological change in kidney at 25 to 50 mg/kg, ip administered 4 times a week for 3 weeks by H and E staining based analysis; format: organism-based; details: in vivo, 504 h, dose 25-50 mg/kg
HCT-116 [28] = assay: Induction of ferroptosis in human HCT-116 cells assessed as decrease in GSH level upto 1 uM incubated for 24 hrs; format: functional, cell-based
HCT-116 [29] = assay: Antitumor activity against human HCT-116 cells xenografted in BALB/c nude mouse model assessed as tumor growth inhibition at 25 mg/kg, ip administered 4 times a week for 3 weeks relative to control; format: functional; details: HCT-116, 504 h, read-out: TGI
HCT-116 [30] = assay: Induction of ferroptosis in human HCT-116 cells assessed as increase in intracellular lipid ROS level incubated for 24 hrs by CLSM analysis; format: functional, cell-based; details: dose <= 1.0 µM
[31] = Toxicity in BALB/c nude mouse model xenografted with human HCT-116 cells assessed as body weight loss at 25 to 50 mg/kg, ip administered 4 times a week for 3 weeks; format: organism-based; details: in vivo, 504 h, dose 25-50 mg/kg
HCT-116 [32] = assay: Cytotoxicity against human HCT-116 cells assessed as inhibition of cell viability incubated for 48 hrs in presence of Fer-1 by CCK8 assay; format: functional, cell-based
HCT-116 [33] = assay: Antitumor activity against human HCT-116 cells xenografted in BALB/c nude mouse model assessed as tumor growth inhibition at 50 mg/kg, ip administered 4 times a week for 3 weeks relative to control; format: functional; details: HCT-116, 504 h, read-out: TGI
[34] = molecular target: T1, Phospholipid hydroperoxide glutathione peroxidase GPX4 (Homo sapiens); assay: Inhibition of GPX4 in human HCT-116 cells at 0.5 uM by Western blot analysis; format: cell-based; details: time <= 48.0 hrs, TDE = time-dependent effect
HCT-116 [35] = assay: Cytotoxicity against human HCT-116 cells assessed as inhibition of cell viability incubated for 48 hrs in presence of Z-VAD by CCK8 assay; format: functional, cell-based

C#CC(=O)N1CCN(CCNC(=O)c2ccc3c(c2)C(=O)/C(=C2/C(=O)Nc4ccccc42)N3)CC1
IC50 (HCT-116 [1]): 6.31 µM

C#CC(=O)N1CCN(NC(=O)c2ccc3c(c2)C(=O)/C(=C2/C(=O)Nc4ccccc42)N3)CC1
IC50 (HCT-116 [1]): 3.47 µM

C=CC(=O)CCCCC(=O)c1ccc2c(c1)C(=O)/C(=C1/C(=O)Nc3ccccc31)N2
IC50 (HCT-116 [1]): 14.1 µM

C#CC(=O)N1CCC(CNC(=O)c2ccc3c(c2)C(=O)/C(=C2/C(=O)Nc4ccccc42)N3)CC1
IC50 (HCT-116 [1]): 1 µM

C=CC(=O)CCCCCC(=O)c1ccc2c(c1)C(=O)/C(=C1/C(=O)Nc3ccccc31)N2
IC50 (HCT-116 [1]): 13.1 µM

C=CC(=O)N1CCN(C(=O)c2ccc3c(c2)C(=O)/C(=C2/C(=O)Nc4ccccc42)N3)CC1
IC50 (HCT-116 [1]): 17.6 µM

C#CC(=O)N1CCC(c2ccc(NC(=O)c3ccc4c(c3)C(=O)/C(=C3/C(=O)Nc5ccccc53)N4)cc2)CC1
IC50 (HCT-116 [1]): > 20 µM

C=CC(=O)CCC(=O)c1ccc2c(c1)C(=O)/C(=C1/C(=O)Nc3ccccc31)N2
IC50 (HCT-116 [1]): > 20 µM

O=C1Nc2ccccc2/C1=C1/Nc2ccc(C(=O)N3CCN(C(=O)CCl)CC3)cc2C1=O
IC50 (HCT-116 [1]): 2.31 µM

O=C1Nc2ccccc2/C1=C1/Nc2ccc(C(=O)NN3CCN(C(=O)CCl)CC3)cc2C1=O
IC50 (HCT-116 [1]): 1.44 µM

O=C(CCl)CCCC(=O)c1ccc2c(c1)C(=O)/C(=C1/C(=O)Nc3ccccc31)N2
IC50 (HCT-116 [1]): 3.96 µM

O=C1Nc2ccccc2/C1=C1/Nc2ccc(C(=O)NCC3CCN(C(=O)CCl)CC3)cc2C1=O
Activity (HCT-116 [2]): inactive
inhibition (HCT-116 [3]): inactive
CLint scaled at 0.5 µM [4]: 95.5 mL/min/kg
Activity (HCT-116 [5]): Active
inhibition [6]: Dose-Dependent Effect
half-life at 0.5 µM [7]: 17.1 min
Activity [8]: Non-Toxic
CLhep predicted at 0.5 µM [9]: 16.9 mL/min/kg
inhibition (HCT-116 [10]): Active
inhibition [11]: Active
solubility kinetic [12]: < 0.5 µg/mL
Activity (HCT-116 [13]): Dose-Dependent Effect
Activity [14]: Non-Toxic
Activity [15]: Non-Toxic
Activity (HCT-116 [16]): inactive
IC50 [17]: 6.48 µM
Activity [18]: Non-Toxic
Activity (HCT-116 [19]): inactive
inhibition (HCT-116 [20]): Dose-Dependent Effect
Activity (HCT-116 [21]): inactive
inhibition (HCT-116 [22]): Active
Activity (HCT-116 [23]): Dose-Dependent Effect
inhibition (HCT-116 [24]): inactive
Activity (HCT-116 [25]): Active
inhibition (HCT-116 [26]): Active
Activity [27]: Non-Toxic
Activity (HCT-116 [28]): Active
inhibition in vivo at 25 mg/kg (HCT-116 [29]): 63.4%
IC50 (HCT-116 [1]): 0.49 µM
Activity (HCT-116 [30]): Dose-Dependent Effect
Activity [31]: Non-Toxic
inhibition (HCT-116 [32]): inactive
inhibition in vivo at 50 mg/kg (HCT-116 [33]): 71.5%
inhibition [34]: Tde
inhibition (HCT-116 [35]): Active

O=C1Nc2ccccc2/C1=C1/Nc2ccccc2C1=O [INDIRUBIN]
CLint scaled at 0.5 µM [4]: 70.2 mL/min/kg
half-life at 0.5 µM [7]: 22.8 min
CLhep predicted at 0.5 µM [9]: 16 mL/min/kg
solubility kinetic [12]: 4.01 µg/mL (≈ 15.3 µM)
IC50 (HCT-116 [1]): 19.5 µM

C#CC(=O)CCCCCC(=O)c1ccc2c(c1)C(=O)/C(=C1/C(=O)Nc3ccccc31)N2
IC50 (HCT-116 [1]): 3.53 µM

O=C1Nc2ccccc2/C1=C1/Nc2ccc(C(=O)Nc3ccc(N4CCN(C(=O)CCl)CC4)cc3)cc2C1=O
IC50 (HCT-116 [1]): 7.54 µM

C#CC(=O)N1CCN(C(=O)c2ccc3c(c2)C(=O)/C(=C2/C(=O)Nc4ccccc42)N3)CC1
IC50 (HCT-116 [1]): 6.39 µM

C=CC(=O)N1CCN(c2ccc(NC(=O)c3ccc4c(c3)C(=O)/C(=C3/C(=O)Nc5ccccc53)N4)cc2)CC1
IC50 (HCT-116 [1]): > 20 µM
